According to patent US9944654B2, “Nargenicin compounds and uses thereof as antibacterial agents” (priority 2014, dated 2018):
≈ marks a conversion by molar mass, not a printed value. Where “and” joins values, the source holds several entries; their conditions need not be identical. Equal entries are not always repeated. Where two headings read alike, the source gives them in different places.

How the values were obtained:
[1] = target: T1, E. coli DnaE (DNA polymerase III α-subunit from Escherichia coli) (Escherichia coli, UniProt P10443); test: In vitro DnaE single enzyme assay (E. coli); assay type: biochemical
T1 construct: EcDnaE (E. coli DnaE residues 1-1160); 6xHis (N); made in house; host or cells: E. coli BL21(DE3)
T1 sequence (P10443 whole entry, the tested form may be a part): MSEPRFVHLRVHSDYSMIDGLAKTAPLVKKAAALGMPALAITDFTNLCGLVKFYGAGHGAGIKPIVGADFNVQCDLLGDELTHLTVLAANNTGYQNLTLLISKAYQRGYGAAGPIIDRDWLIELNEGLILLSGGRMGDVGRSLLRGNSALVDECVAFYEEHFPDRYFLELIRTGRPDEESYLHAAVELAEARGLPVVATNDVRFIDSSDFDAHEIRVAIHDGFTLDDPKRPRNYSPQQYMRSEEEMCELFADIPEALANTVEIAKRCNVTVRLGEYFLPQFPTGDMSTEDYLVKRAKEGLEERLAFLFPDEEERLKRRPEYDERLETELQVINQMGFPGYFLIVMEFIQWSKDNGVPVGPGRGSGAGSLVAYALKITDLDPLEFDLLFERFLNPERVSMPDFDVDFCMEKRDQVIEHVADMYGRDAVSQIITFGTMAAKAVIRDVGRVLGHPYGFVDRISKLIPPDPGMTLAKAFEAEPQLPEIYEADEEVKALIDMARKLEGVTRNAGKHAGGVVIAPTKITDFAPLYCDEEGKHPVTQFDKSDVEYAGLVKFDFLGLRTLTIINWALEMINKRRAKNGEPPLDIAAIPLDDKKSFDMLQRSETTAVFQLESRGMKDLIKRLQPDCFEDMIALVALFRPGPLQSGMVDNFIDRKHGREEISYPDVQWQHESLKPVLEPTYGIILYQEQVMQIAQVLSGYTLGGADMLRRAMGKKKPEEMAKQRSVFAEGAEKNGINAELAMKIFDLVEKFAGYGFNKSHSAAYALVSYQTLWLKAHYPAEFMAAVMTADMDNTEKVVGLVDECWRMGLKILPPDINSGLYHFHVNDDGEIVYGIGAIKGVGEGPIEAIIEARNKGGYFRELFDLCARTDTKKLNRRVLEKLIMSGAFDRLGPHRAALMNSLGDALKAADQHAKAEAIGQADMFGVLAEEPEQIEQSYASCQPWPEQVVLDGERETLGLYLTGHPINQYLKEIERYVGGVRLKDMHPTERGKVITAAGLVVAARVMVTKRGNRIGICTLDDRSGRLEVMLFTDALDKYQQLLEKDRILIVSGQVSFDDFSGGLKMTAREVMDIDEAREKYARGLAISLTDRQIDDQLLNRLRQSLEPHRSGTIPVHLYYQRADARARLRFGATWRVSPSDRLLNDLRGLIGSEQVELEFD
Method: (§1) Plasmids encoding EcDnaE (E. coli DnaE residues 1-1160) and SaDnaE (S. aureus DnaE residues 1-1065) with 6×His N-terminal tags, were overexpressed in BL21(DE3) and BL21-AI cells (Invitrogen), respectively. Cells were grown in LB media to an OD ˜0.45 pelleted and then resuspended in Minimal Media, as described in Pryor et al. (1997, Protein Expr Purif. 10:309-19), and inducer (0.4 mM IPTG or 0.2% arabinose) for 21 hours at 18° C. at 220 rpm. Cells were then harvested, frozen for 20 minutes at −80° C. and thawed. Pellets were resuspended in 1× Talon buffer (50 mM Sodium Phosphate, 300 mM Sodium Chloride, pH 7.4) +10% glycerol +Roche PI's (-EDTA). Cells were lysed with two passes through a French press, then centrifuged for 45 minutes at 40,000 rpm (70Ti, Beckman). Supernatant was bound to 5 mL TALON resin (CLONTECH) for 1 hour at room temperature on Nutator. TALON resin was washed with 10 mM imidizole, and DnaE was eluted with 250 mM imidizole. Eluate was concentrated and run on a size exclusion column (SEC200, GE Healthcare) in the following buffer; 25 mM HEPES, 30 mM NaCl,1 mM CaCl2, 5% glycerol, pH 7.9. Pool SEC fractions based on SDS-PAGE run, aliquot, freeze, and store at -80° C.
(§2) DnaE was diluted in 50 mM potassium phosphate pH 7.5, 5 mM BME, 10% glycerol and 200 mM NaCl prior to use.
(§3) The purpose of the DnaE single enzyme assay is to determine the ability of compounds to inhibit the DNA polymerase III α-subunit homolog from Staphylococcus aureus or the α-subunit from Escherichia coli without the other components of the replication machinery. The DnaE single enzyme assay was a modified version of the method, Standard Pol III Assay Using Activated DNA and Four dNTPs, described by Butler et al., 2008, Methods in Molecular Medicine: New Antibiotic Targets 142:25-36. Briefly, in 96-well plates, enzyme was added to a mixture containing 30 mM Tris-HCl pH 7.5, 20% glycerol, 4 mM DTT, 10 mM Mg acetate, 0.025 mM dATP, 0.025 mM dGTP, 0.025 mM dc:TP, 0.011 mM ^3H-dTTP 1 mCi/ml (Perkin-Elmer), and 0.298 mg/mL Dnase I (Sigma) treated “activated” Calf Thymus DNA (Worthington Biochemical). The assay was set up so that 5 μl of compound was distributed to the plates, 90 μl of reaction mix was added to the compound, and 5 μl of enzyme was added to start the reaction. Assays were initiated by the addition of 0.8 μg/ml E. coli or 0.05 μg/ml S. aureus DnaE, incubated for 30 min at 30° C., and terminated by the addition of a 20% trichloroacetic acid and 0.2% sodium pyrophosphate solution. Precipitated labeled DNA was collected on Glass-fiber Filtermat A using Micro96 Harvester, and the filters were washed, dried, and counted in a Microbeta Trilux (Perkin Elmer). Serial dilutions of compounds (in DMSO) were added to the plates before enzyme addition.

[2] = target: T2, S. aureus DnaE (DNA polymerase III α-subunit homolog from Staphylococcus aureus) (Staphylococcus aureus, UniProt Q5HF71); test: biochemical; assay type: biochemical; settings: S. aureus DnaE IC50
T2 construct: SaDnaE (S. aureus DnaE residues 1-1065); 6xHis (N); made in house; host or cells: E. coli BL21-AI
T2 sequence (Q5HF71 1-1065): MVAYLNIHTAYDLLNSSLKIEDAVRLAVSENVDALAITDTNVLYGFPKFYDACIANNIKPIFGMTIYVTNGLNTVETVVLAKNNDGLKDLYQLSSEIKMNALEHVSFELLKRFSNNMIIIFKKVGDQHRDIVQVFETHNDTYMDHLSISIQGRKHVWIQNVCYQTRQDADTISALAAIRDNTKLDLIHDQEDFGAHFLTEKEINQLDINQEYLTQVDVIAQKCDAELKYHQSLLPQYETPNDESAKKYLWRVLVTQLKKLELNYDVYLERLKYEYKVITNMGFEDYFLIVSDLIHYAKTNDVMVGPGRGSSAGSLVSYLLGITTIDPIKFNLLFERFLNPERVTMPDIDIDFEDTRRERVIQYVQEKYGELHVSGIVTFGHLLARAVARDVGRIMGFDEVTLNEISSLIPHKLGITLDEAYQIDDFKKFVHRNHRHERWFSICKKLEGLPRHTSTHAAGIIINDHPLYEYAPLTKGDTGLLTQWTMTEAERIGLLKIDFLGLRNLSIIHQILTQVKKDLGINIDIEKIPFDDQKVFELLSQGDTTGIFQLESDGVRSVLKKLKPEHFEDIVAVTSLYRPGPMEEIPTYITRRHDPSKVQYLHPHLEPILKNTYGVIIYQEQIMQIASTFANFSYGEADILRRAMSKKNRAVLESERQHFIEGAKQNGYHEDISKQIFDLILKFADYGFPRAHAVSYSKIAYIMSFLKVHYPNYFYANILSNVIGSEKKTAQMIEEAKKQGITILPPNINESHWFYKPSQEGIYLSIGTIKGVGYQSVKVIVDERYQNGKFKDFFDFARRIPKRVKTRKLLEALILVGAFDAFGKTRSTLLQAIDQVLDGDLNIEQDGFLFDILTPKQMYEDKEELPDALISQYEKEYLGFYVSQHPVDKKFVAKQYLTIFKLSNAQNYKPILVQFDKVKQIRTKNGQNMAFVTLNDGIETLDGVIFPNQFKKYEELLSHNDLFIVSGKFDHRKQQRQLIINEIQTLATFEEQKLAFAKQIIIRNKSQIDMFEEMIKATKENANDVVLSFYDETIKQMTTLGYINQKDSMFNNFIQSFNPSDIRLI
Method: as §1, §2, §3

[3] = tested on: Escherichia coli MB5747 (LS 883, tolC); test: microbe, parasite or virus in culture; assay type: cell-based; settings: * = some reduction of growth versus control at […]; for MIC: Escherichia coli, read-out: E. coli LS883 tolC (MIC), MHII broth
[4] = tested on: Pseudomonas aeruginosa MB5890 (CB1101, efflux-deleted); test: microbe, parasite or virus in culture; assay type: cell-based; settings: * = some reduction of growth versus control at […]; for MIC: Pseudomonas aeruginosa, read-out: P. aeruginosa MB5890 efflux-del (MIC), MHII broth
[5] = tested on: Staphylococcus aureus MB6266 (MRSA COL); test: Nargenicin antibacterial assay (MIC), S. aureus; assay type: cell-based; settings: Staphylococcus aureus, MRSA, read-out: S. aureus COL (MIC), MHII broth + 50% human serum; * = some reduction of growth versus control at […]
[6] = tested on: Streptococcus pneumoniae MB6357 (CL 2883); test: Nargenicin antibacterial assay (MIC), S. pneumoniae; assay type: cell-based; settings: Streptococcus pneumoniae, read-out: S. pneumoniae MB2883 (MIC), Isosensitest broth; * = some reduction of growth versus control at […]

Compound	IC50 ([1]; E. coli DnaE IC50)	IC50 [2]	MIC [3]	MIC [4]	MIC [5]	MIC [6]	IC50 ([1]; read-out: E. coli DnaE IC50 (converted))	E. coli LS883 tolC (MIC) ([3]; MHII broth)	P. aeruginosa MB5890 efflux-del (MIC) ([4]; MHII broth)
CO[C@H]1C[C@H]2C=C[C@H]3[C@H]4O[C@]2(/C(C)=C/[C@@H](C)[C@@H]([C@@H](C)OC(=O)NC(=O)C(Cl)(Cl)Cl)OC1=O)[C@@H]3[C@H](OC(=O)NC(=O)C(Cl)(Cl)Cl)[C@@H](C)[C@H]4OC(=O)c1ccc[nH]1 [Example 1, (3R,4S,7S,8aS,10aR,11R,12R,13R,14R,14aS,14bS,E)-7-methoxy-1,3,13-trimethyl-6-oxo-14-(((2,2,2-trichloroacetyl)carbamoyl)oxy)-4-((R)-1-(((2,2,2-trichloroacetyl)carbamoyl)oxy)ethyl)-3,4,6,7,8,8a,10a,11,12,13,14,14 a-dodecahydro-11,14b-epoxynaphtho[2,1-e]oxecin-12-yl 1H-pyrrole-2-carboxylate]	67.2 µM	34700 nM	> 8 µg/mL	> 128 µg/mL	> 8 µg/mL	> 128 µg/mL	–	–	–
CO[C@H]1CC2C=C[C@H]3[C@H]4O[C@]2(/C(C)=C/[C@@H](C)[C@@H](/C(C)=N\O)OC1=O)[C@@H]3[C@H](O)[C@@H](C)[C@H]4OC(=O)c1ccc[nH]1 (stereo partly shown) [Example 180]	–	< 11.4 nM	4 µg/mL (≈ 7.57 µM)	64 µg/mL (≈ 121 µM)	4 µg/mL	32 µg/mL (≈ 60.5 µM)	11.4 µM	–	–
CO[C@H]1CC2C=C[C@H]3[C@H]4O[C@]2(/C(C)=C/[C@@H](C)[C@@H](C(C)O)OC1=O)[C@@H]3[C@H](O)[C@@H](C)[C@H]4OC(=O)c1cc(-c2cccn2C(=O)OC(C)(C)C)c[nH]1 (stereo partly shown) [Example 45]	–	2200 nM	> 128 µg/mL	> 128 µg/mL	> 128 µg/mL	4 µg/mL (≈ 5.88 µM)	–	–	–
CC[C@H]1OC(=O)[C@@H](OC)C[C@H]2C=C[C@H]3[C@H]4O[C@]2(/C(C)=C/[C@H]1C)[C@@H]3[C@H](O)[C@@H](C)[C@H]4OC(=O)c1ccc[nH]1 [Example 159]	36 µM and 22 µM and 30 µM and 20 µM	< 6 nM	4 µg/mL (≈ 8.01 µM)	32 µg/mL (≈ 64.1 µM)	2 µg/mL	–	–	2 µg/mL	16 µg/mL
COC1CC2C=CC3C4OC2(C(C)=CC(C)C(C(C)OC(=O)OCCN(CCO)C(CO)(CO)CO)OC1=O)C3C(O)C(C)C4OC(=O)c1ccc[nH]1 (stereo not shown) [Example 31]	–	< 7.99 nM	2 µg/mL (≈ 2.66 µM)	32 µg/mL (≈ 42.6 µM)	2 µg/mL	> 128 µg/mL	–	–	–
CO[C@H]1C[C@H]2C=C[C@@H]3[C@H]4C(=O)C(C)C(C[N+](=O)[O-])[C@@H]3O[C@@]24/C(C)=C/[C@@H](C)[C@@H]([C@@H](C)OCSC)OC1=O (stereo partly shown) [Example 175]	–	> 191000 nM	> 128 µg/mL	> 128 µg/mL	> 128 µg/mL	> 128 µg/mL	–	–	–
